Patent US4868195A, “Novel enolamides, pharmaceutical compositions and methods of use thereof for activity as modulators of the arachidonic acid cascade” (Warner-Lambert Company, priority 1988, dated 1989)

tested on: Human Leukocyte Lipoxygenase; experiment: Human Leukocyte Lipoxygenase Assay (LDA-H); type: biochemical; conditions: Concentration 2.50 E -5 M
Method in brief: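 Enzyme from acetone-pentane powder of human buffy-coat leukocytes, extracted in 0.1M Tris pH 7.4. Compound preincubated 5 min with enzyme, then reaction started with arachidonic or linoleic acid (100 μM or 1.0 μM) and followed at 234 nm (conjugated diene) at 24° C. IC50 is molar concentration halving control rate.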

`CCCCOc1ccc(CCc2ccc(NC(=O)C3CS(=O)(=O)c4ccccc4C3=O)cc2)cc1` (centres unmarked) [Example 48] and `O=C(Nc1ccc(CCc2ccc3ccccc3c2)cc1)C1=C(O)c2ccccc2S(=O)(=O)C1` [Example 51, 4-Hydroxy-N-[4-[2-(2-naphthalenyl)ethyl]phenyl]-2H-1-benzothiopyran-3-carboxamide, 1,1-dioxide] are the same in “% Inhibition (LDAH)” value: 0.0% for the first, 0.0% for the second.

same assay, conditions: acetone-pentane powder enzyme, 234 nm, 24° C., 5 min preincubation; read-out: Concentration (M) for 50.0 % Inhibition, IC (LDAH)

Going from `COc1ccc(CCc2ccc(NC(=O)C3CS(=O)(=O)c4ccccc4C3=O)cc2)cc1` (centres unmarked) [Example 41] to `O=C(Nc1ccc(CCc2ccc(Cl)cc2)cc1)C1CS(=O)(=O)c2ccccc2C1=O` (centres unmarked) [Example 54, N-[4-[2-(4-Chlorophenyl)ethyl]phenyl]-3,4-dihydro-4-oxo-2H-1-benzothiopyran-3-carboxamide, 1,1-dioxide], the IC50 falls from 4.5e-05 M to 3.5e-06 M (13-fold). The second is the more potent here.

First: COc1ccc(CCc2ccc(NC(=O)c3sc4ccccc4c3O)cc2)cc1OC [Example 143, Benzo[b]thiophene-2-carboxamide, N-[4-[2-(3,4-dimethoxphenyl)ethyl]phenyl]-3-hydroxy]
Second: O=C(Nc1ccc(CCc2ccccc2)cc1)C1CS(=O)(=O)c2ccccc2C1=O (centres unmarked) [Example 16, 3,4-Dihydro-4-oxo-N-[(4-(2-phenyl)ethyl]-phenyl]-2H-1-benzothiopyran-3-carboxamide, 1,1-dioxide]
The IC50 of the first is 12-fold lower: 4.4e-06 M for the first, 5.1e-05 M for the second. The first is the more potent here.

Compared with `CCCCCCCCCCc1ccc(NC(=O)C2CS(=O)(=O)c3ccccc3C2=O)cc1` (centres unmarked) [Example 60, N-(4-Decylphenyl)-3,4-dihydro-4-oxo-2H-1-benzoothiopyran-3-carboxamide, 1,1-dioxide], `O=C(Nc1ccc(CCc2ccc(-c3ccccc3)cc2)cc1)C1CS(=O)(=O)c2ccccc2C1=O` (centres unmarked) [Example 46, N-[4-[2-([1,1'-biphenyl]-4-yl)ethyl]phenyl]-3,4-dihydro-4-oxo-2H-1-benzothiopyran-3-carboxamide, 1,1-dioxide] is 2.3-fold lower in IC50: 2.5e-05 M for the first, 1.1e-05 M for the second. The second is the more potent here.
